{"source": "patent US8222247B2", "about": "“Modulators of glucocorticoid receptor, AP-1, and/or NF-kappabeta activity and use thereof” (Bristol-Myers Squibb Company, priority 2006, dated 2012)", "key": {"[1]": {"target": "T1, human full-length glucocorticoid receptor (Homo sapiens, UniProt P04150)", "T1 construct": "recombinantly expressed human full-length glucocorticoid receptor; purchased PanVera Co., Madison, Wis; P2816", "T1 sequence (P04150 1-777)": "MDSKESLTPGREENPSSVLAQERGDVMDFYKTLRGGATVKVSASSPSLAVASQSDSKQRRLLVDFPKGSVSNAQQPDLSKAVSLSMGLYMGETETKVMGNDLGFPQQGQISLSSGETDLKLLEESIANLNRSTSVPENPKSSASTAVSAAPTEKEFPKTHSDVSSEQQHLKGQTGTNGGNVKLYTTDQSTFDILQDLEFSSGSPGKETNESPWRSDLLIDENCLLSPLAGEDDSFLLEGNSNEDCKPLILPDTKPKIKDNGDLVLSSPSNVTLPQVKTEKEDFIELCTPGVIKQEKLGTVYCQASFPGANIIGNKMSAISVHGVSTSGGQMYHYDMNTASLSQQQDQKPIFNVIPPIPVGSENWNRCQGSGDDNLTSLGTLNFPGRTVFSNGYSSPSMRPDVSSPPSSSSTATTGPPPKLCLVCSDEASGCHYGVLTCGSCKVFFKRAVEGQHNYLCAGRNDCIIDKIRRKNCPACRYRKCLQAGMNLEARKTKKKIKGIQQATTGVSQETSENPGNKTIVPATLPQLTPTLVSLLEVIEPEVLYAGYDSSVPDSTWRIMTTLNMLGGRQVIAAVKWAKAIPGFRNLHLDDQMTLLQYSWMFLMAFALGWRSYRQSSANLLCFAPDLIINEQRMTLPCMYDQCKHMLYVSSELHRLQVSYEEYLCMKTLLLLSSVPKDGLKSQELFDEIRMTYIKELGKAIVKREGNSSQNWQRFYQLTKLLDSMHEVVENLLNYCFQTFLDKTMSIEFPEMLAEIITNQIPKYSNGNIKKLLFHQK", "test": "Glucocorticoid Receptor Binding Assay (II), fluorescence polarization competitor kit", "settings": "1 h, % Relative Binding Affinity to dexamethasone, read-out: GR (% RBA* @ 10 μM) (GR Binding Assay (II)b)", "protocol": "Glucocorticoid Receptor Binding Assay (II)^b\nIn order to measure the binding of compounds on the glucocorticoid receptor a commercially available kit was used (Glucocorticoid receptor competitor assay kit, PanVera Co., Madison, Wis., P2816). Briefly, a cell lysate containing recombinantly expressed human full-length glucocorticoid receptor was mixed with a fluorescently labeled glucocorticoid (1 nM Fluormone GS1) in the presence or absence of test compound. After one hour at room temperature, the fluorescence polarization (FP) of the samples were measured. The FP of a mixture of receptor, fluorescent probe (i.e. Fluormone GS1) and 1 mM dexamethasone represented background fluorescence or 100% inhibition, whereas, the FP of the mixture without dexamethasone was taken to be 100% binding. The percentage inhibition of test molecules were then compared to the sample with 1 mM dexamethasone and expressed as % relative binding activity with dexamethasone being 100% and no inhibition is 0%. Test molecules were analyzed in the concentration range from 2.4 nM to 40 microMolar."}, "[2]": {"target": "T2, human glucocorticoid receptor (Homo sapiens, UniProt P04150)", "T2 construct": "purified human recombinant full-length glucocorticoid receptor (2 nM); purchased Invitrogen Part #2893", "T2 sequence (P04150 1-777)": "T1 sequence (P04150 1-777)", "test": "Glucocorticoid Receptor Binding Assay (I), fluorescence polarization competitor kit", "settings": "purified human recombinant full-length GR, Fluormone GS Red", "protocol": "Glucocorticoid Receptor Binding Assay (I)^a\nIn order to assess the affinity of test compounds for the human glucocorticoid receptor, a commercially available kit was used (Glucocorticoid Receptor Competitor Assay Kit, Invitrogen Part #2893). Briefly, purified human recombinant full-length glucocorticoid receptor (2 nM) was mixed with fluorescently labeled glucocorticoid (1 nM Fluormone GS Red) in the presence or absence of test compound. After two hour incubation at room temperature in the dark, the fluorescence polarization (FP) of the samples was measured. The FP of a mixture of receptor, fluorescent probe (i.e. Fluormone GS Red) and 5 μM dexamethasone represented background fluorescence or 100% inhibition, whereas, the FP of the mixture without dexamethasone (but in the presence of vehicle) was taken to be 100% binding. The percentage inhibition of test compounds were then compared to the sample with 5 μM dexamethasone and expressed as % relative binding activity with dexamethasone being 100% and no inhibition is 0%. Test compounds were analyzed in the concentration range from 8.5E-05 μM to 5 μM."}}}
{"smiles": "CC(C)(C(=O)Nc1nccs1)C(c1cccc(F)c1)c1ccc(Br)s1", "note": "(stereo not shown) [Example 2, 3-(5-bromo-2-thienyl)-3-(3-fluorophenyl)-2,2-dimethyl-N-1,3-thiazol-2-ylpropanamide]", "values": [{"measurement": "percent relative binding activity vs dexamethasone at 10 µM", "setting": "[1]", "value": 10.1, "unit": "%"}]}
{"smiles": "CC(C)(C(=O)Nc1nncs1)C(c1ccccc1)c1ccc(N2CCCCC2)nc1", "note": "(stereo not shown) [Example 15, 2,2-dimethyl-3-phenyl-3-(6-(1-piperidinyl)-3-pyridinyl)-N-1,3,4-thiadiazol-2-ylpropanamide]", "values": [{"measurement": "percent relative binding activity vs dexamethasone at 10 µM", "setting": "[1]", "value": 14.7, "unit": "%"}]}
{"smiles": "COc1ncc(C(c2ccccc2)C(C)(C)C(=O)Nc2nncs2)cc1Cl", "note": "(stereo not shown) [Example 27, 3-(5-chloro-6-methoxy-3-pyridinyl)-2,2-dimethyl-3-phenyl-N-1,3,4-thiadiazol-2-ylpropanamide]", "values": [{"measurement": "percent relative binding activity vs dexamethasone at 10 µM", "setting": "[1]", "value": 52.8, "unit": "%"}]}
{"smiles": "CC(C)(C(=O)Nc1nccs1)C(c1ccccc1)c1ccc(N2CCOCC2)nc1", "note": "(single isomer, unassigned) [Example 20, 2,2-Dimethyl-3-(6-(4-morpholinyl)-3-pyridinyl)-3-phenyl-N-1,3-thiazol-2-ylpropanamide]", "values": [{"measurement": "percent relative binding activity vs dexamethasone at 10 µM", "setting": "[1]", "value": 152, "unit": "%"}]}
{"smiles": "CC(C)(C(=O)Nc1nncs1)C(c1ccccc1)c1ccc(N2CCOCC2)nc1", "note": "(single isomer, unassigned) [Example 22, 2,2-Dimethyl-3-(6-(4-morpholinyl)-3-pyridinyl)-3-phenyl-N-1,3,4-thiadiazol-2-ylpropanamide]", "values": [{"measurement": "percent relative binding activity vs dexamethasone at 10 µM", "setting": "[1]", "value": 477, "unit": "%"}]}
{"smiles": "COc1ccc(-c2ccc(C(c3ccccc3)C(C)(C)C(=O)Nc3nncs3)cn2)cc1", "note": "(stereo not shown) [Example 24, 3-(6-(4-Methoxyphenyl)-3-pyridinyl)-2,2-dimethyl-3-phenyl-N-1,3,4-thiadiazol-2-ylpropanamide]", "values": [{"measurement": "percent relative binding activity vs dexamethasone at 10 µM", "setting": "[1]", "value": 16.3, "unit": "%"}]}
{"smiles": "CC(C)(C(=O)Nc1nccs1)C(c1ccccc1)c1ccncc1", "note": "(stereo not shown) [Example 7, 2,2-dimethyl-3-phenyl-3-(4-pyridinyl)-N-1,3-thiazol-2-ylpropanamide]", "values": [{"measurement": "percent relative binding activity vs dexamethasone at 10 µM", "setting": "[1]", "value": 161, "unit": "%"}]}
{"smiles": "Cc1ccc(CNc2ccc(C(c3ccccc3)C(C)(C)C(=O)Nc3nccs3)cn2)cc1", "note": "(stereo not shown) [Example 18, 2,2-dimethyl-3-(6-((4-methylbenzyl)amino)-3-pyridinyl)-3-phenyl-N-1,3-thiazol-2-ylpropanamide]", "values": [{"measurement": "percent relative binding activity vs dexamethasone at 10 µM", "setting": "[1]", "value": 37.2, "unit": "%"}]}
{"smiles": "CC(C)(C(=O)Nc1nncs1)C(c1cccc(F)c1)c1ccc(Br)s1", "note": "(stereo not shown) [Example 1, 3-(5-Bromo-2-thienyl)-3-(3-fluorophenyl)-2,2-dimethyl-N-1,3,4-thiadiazol-2-ylpropanamide]", "values": [{"measurement": "percent relative binding activity vs dexamethasone at 10 µM", "setting": "[1]", "value": 6.4, "unit": "%"}]}
{"smiles": "CC(C)(C(=O)Nc1nncs1)C(c1ccccc1)c1ccncc1", "note": "(stereo not shown) [Example 6, 2,2-dimethyl-3-phenyl-3-(4-pyridinyl)-N-1,3,4-thiadiazol-2-ylpropanamide]", "values": [{"measurement": "percent relative binding activity vs dexamethasone at 10 µM", "setting": "[1]", "value": 502, "unit": "%"}]}
{"smiles": "CC(C)(C(=O)Nc1nncs1)C(c1ccccc1)c1cnc(N2CCOCC2)c(Cl)c1", "note": "(stereo not shown) [Example 28, 3-(5-chloro-6-(4-morpholinyl)-3-pyridinyl)-2,2-dimethyl-3-phenyl-N-1,3,4-thiadiazol-2-ylpropanamide]", "values": [{"measurement": "percent relative binding activity vs dexamethasone at 10 µM", "setting": "[1]", "value": 187, "unit": "%"}]}
{"smiles": "CC(C)(C(=O)Nc1nncs1)C(c1ccccc1)c1ccc(N2CCCC2)nc1", "note": "(stereo not shown) [Example 16, 2,2-dimethyl-3-phenyl-3-(6-(1-pyrrolidinyl)-3-pyridinyl)-N-1,3,4-thiadiazol-2-ylpropanamide]", "values": [{"measurement": "percent relative binding activity vs dexamethasone at 10 µM", "setting": "[1]", "value": 90.4, "unit": "%"}]}
{"smiles": "CC(C)(C(=O)Nc1nncs1)C(c1ccc(N2CCOCC2)cc1)c1cccs1", "note": "(stereo not shown) [Example 11, 2,2-dimethyl-3-(4-(4-morpholinyl)phenyl)-N-1,3,4-thiadiazol-2-yl-3-(2-thienyl)propanamide]", "values": [{"measurement": "percent relative binding activity vs dexamethasone at 10 µM", "setting": "[1]", "value": 7.4, "unit": "%"}]}
{"smiles": "CC(C)(C(=O)Nc1nccs1)C(c1ccccc1)c1ccc(-c2ccoc2)nc1", "note": "(stereo not shown) [Example 25, 3-(6-(3-furyl)-3-pyridinyl)-2,2-dimethyl-3-phenyl-N-1,3-thiazol-2-ylpropanamide]", "values": [{"measurement": "percent relative binding activity vs dexamethasone at 10 µM", "setting": "[1]", "value": 73.4, "unit": "%"}]}
{"smiles": "CC(C(=O)Nc1nncs1)C(c1ccccc1)c1ccc(Br)s1", "note": "(mixture of isomers) [Example 132, 3-(5-bromo-2-thienyl)-2-methyl-3-phenyl-N-1,3,4-thiadiazol-2-ylpropanamide]", "values": [{"measurement": "Ki", "setting": "[2]", "value": 3.2, "unit": "nM"}]}
{"smiles": "CC(C)(C(=O)Nc1nncs1)C(c1ccccc1)c1ccc(Br)s1", "note": "(single isomer, unassigned) [Example 85, 3-(5-bromo-2-thienyl)-2,2-dimethyl-3-phenyl-N-1,3,4-thiadiazol-2-ylpropanamide]", "values": [{"measurement": "Ki", "setting": "[2]", "value": 2.74, "unit": "nM"}]}
{"smiles": "CC(C)(C(=O)Nc1nncs1)[C@@H](c1cccc(F)c1)c1ccc(-c2ccc(C(N)=O)cc2)s1", "note": "[Example 74, 4-(5-((1R)-1-(3-fluorophenyl)-2,2-dimethyl-3-oxo-3-(1,3,4-thiadiazol-2-ylamino)propyl)-2-thienyl)benzamide]", "values": [{"measurement": "Ki", "setting": "[2]", "value": 2.24, "unit": "nM"}]}
{"smiles": "CC(C)(C(=O)Nc1nncs1)C(c1ccccc1)c1ccc(-c2ccc(C(=O)N3CCCCC3)cc2)s1", "note": "(stereo not shown) [Example 46, 2,2-dimethyl-3-phenyl-3-(5-(4-(1-piperidinylcarbonyl)phenyl)-2-thienyl)-N-1,3,4-thiadiazol-2-ylpropanamide]", "values": [{"measurement": "Ki", "setting": "[2]", "value": 11.7, "unit": "nM"}]}
{"smiles": "CN(C)C(=O)c1ccc(-c2ccc(C(c3ccccc3)C(C)(C)C(=O)Nc3nncs3)s2)cc1", "note": "(stereo not shown) [Example 44, 4-(5-(2,2-dimethyl-3-oxo-1-phenyl-3-(1,3,4-thiadiazol-2-ylamino)propyl)-2-thienyl)-N,N-dimethylbenzamide]", "values": [{"measurement": "Ki", "setting": "[2]", "value": 0.89, "unit": "nM"}]}
{"smiles": "C[C@@H](C(=O)Nc1nncs1)[C@H](c1cccc(F)c1)c1ccc(-c2ccc(C(=O)N3CCC3)c(F)c2)s1", "note": "[Example 122, (2R,3R)-3-(5-(4-(1-azetidinylcarbonyl)-3-fluorophenyl)-2-thienyl)-3-(3-fluorophenyl)-2-methyl-N-1,3,4-thiadiazol-2-ylpropanamide]", "values": [{"measurement": "Ki", "setting": "[2]", "value": 1.91, "unit": "nM"}]}
{"smiles": "C[C@H](C(=O)Nc1nncs1)[C@@H](c1cccc(F)c1)c1ccc(-c2ccc(C(=O)N(C)C)cc2)s1", "note": "[Example 125, 4-(5-((1S,2S)-1-(3-fluorophenyl)-2-methyl-3-oxo-3-(1,3,4-thiadiazol-2-ylamino)propyl)-2-thienyl)-N,N-dimethylbenzamide]", "values": [{"measurement": "Ki", "setting": "[2]", "value": 5.71, "unit": "nM"}]}
{"smiles": "C[C@H](C(=O)Nc1nncs1)[C@H](c1cccc(F)c1)c1ccc(-c2ccc(C(=O)N(C)C)c(Cl)c2)s1", "note": "[Example 126, 2-chloro-4-(5-((1R,2S)-1-(3-fluorophenyl)-2-methyl-3-oxo-3-(1,3,4-thiadiazol-2-ylamino)propyl)-2-thienyl)-N,N-dimethylbenzamide]", "values": [{"measurement": "Ki", "setting": "[2]", "value": 220, "unit": "nM"}]}
{"smiles": "C[C@H](C(=O)Nc1nncs1)[C@@H](c1cccc(F)c1)c1ccc(-c2ccc(C(=O)N3CCOCC3)cc2)s1", "note": "[Example 108, (2S,3S)-3-(3-fluorophenyl)-2-methyl-3-(5-(4-(4-morpholinylcarbonyl)phenyl)-2-thienyl)-N-1,3,4-thiadiazol-2-ylpropanamide]", "values": [{"measurement": "Ki", "setting": "[2]", "value": 5.39, "unit": "nM"}]}
{"smiles": "CC(C)(C(=O)Nc1nncs1)[C@@H](c1cccc(F)c1)c1ccc(-c2ccc(C(=O)N3CCCCC3)cc2)s1", "note": "[Example 71, (3R)-3-(3-fluorophenyl)-2,2-dimethyl-3-(5-(4-(1-piperidinylcarbonyl)phenyl)-2-thienyl)-N-1,3,4-thiadiazol-2-ylpropanamide]", "values": [{"measurement": "Ki", "setting": "[2]", "value": 1.51, "unit": "nM"}]}
{"smiles": "CC(C)(C(=O)Nc1nncs1)C(c1ccccc1)c1ccc(Br)s1", "note": "(single isomer, unassigned) [Example 84, 3-(5-bromo-2-thienyl)-2,2-dimethyl-3-phenyl-N-1,3,4-thiadiazol-2-ylpropanamide]", "values": [{"measurement": "Ki", "setting": "[2]", "value": 5.06, "unit": "nM"}]}
